Results from US10383910B2, “Methods of increasing fertility of a male subject with costus speciosus extract” (priority 2016, dated 2019).

What was measured:
[1] = plasma levels of testosterone of rats after 90 days of treatment; assay type: in vivo, rat
Protocol: (§1) Statistical analyses were performed using SPSS software version 21.00. One-way analysis of variance (ANOVA), post-hoc and least significant difference (LSD) were performed for intergroup comparisons. P>0.05, P≤0.05, and P≤0.001 were considered non-significant, significant, and highly significant, respectively.

[2] = system: testis of the rats; experiment: histological examination of the rat testis (light microscopy, hematoxylin-eosin); settings: 90 days
Protocol: The experiments in the Examples were conducted on 30 male albino rats of the Wister strain with an age range of 40-45 days (approximately 6 weeks) and a weight range of 68-122 g. […] The rats were provided feed and water, and bred in a private room with a temperature of 24±2° C., a relative humidity of 55±5%, and a 12-hour light/12-hour dark cycle.
The first treatment group (GI) was a control treatment group composed of 5 rats that were given distilled water orally throughout the experiment.
The second treatment group (GII) was composed of 5 rats that were orally administered with only the root extract of Costus speciosus at a dose of 2 mg/kg body weight/day.
The third treatment group (GIII) was composed of 5 rats that were orally administered with risperidone at a low dose of 1 mg/kg body weight/day.
The fourth treatment group (GIV) was composed of 5 rats that were orally administered with both risperidone at the low dose of 1 mg/kg body weight/day and the root extract of Costus speciosus at 2 mg/kg body weight/day.
The fifth treatment group (GV) was composed of 5 rats that were orally administered with risperidone at a high dose of 2 mg/kg body weight/day.
The sixth treatment group (GVI) was composed of 5 rats that were orally administered with both the high dose of risperidone at 2 mg/kg body weight/day and the root extract of Costus speciosus at 2 mg/kg body weight/day. […]

[3] = body weights of rats after 90 days of treatment; assay type: in vivo, rat
Protocol: as §1

[4] = system: testes; experiment: testes weights of rats after 90 days of treatment; assay type: in vivo, rat; settings: vs control group GI
Protocol: as §1

[5] = GV: risperidone high dose 2 mg/kg/day oral

Cc1nc2n(c(=O)c1CCN1CCC(c3noc4cc(F)ccc34)CC1)CCCC2 [risperidone, Risperidone]
plasma level of testosterone ([1]; GIII: risperidone low dose 1 mg/kg/day oral, vs GIV (low dose + root extract)): insignificant reduction in the plasma level of testosterone | plasma level of testosterone ([1]; GV: risperidone high dose 2 mg/kg/day oral, vs GVI (high dose + root extract)): insignificant reduction in the plasma level of testosterone | histological findings in the testis ([2]; GIII: risperidone low dose 1 mg/kg/day oral, vs GI): abnormal, disorganized, and atrophied seminiferous tubules (ST), disorganization of germinal epithelium, a loss of spermatogenic cell types (pointed by arrows), and a massive and wide-spread destruction of germ cells | histological findings in the testis [2, 5]: degeneration of the germinal epithelium lining (arrowheads), vacuolation of seminiferous tubules (ST) (*), and intertubular oedema | body weight ([3]; GIII: risperidone low dose 1 mg/kg/day oral, vs GI or GII): significant increase in body weight | body weight ([3]; GV: risperidone high dose 2 mg/kg/day oral, vs GIII (low dose risperidone)): significant increase in body weight | testes weight ([4]; GIII: risperidone low dose 1 mg/kg/day oral): insignificant reduction in testes weight | testes weight [4, 5]: insignificant reduction in testes weight
